Source: US9783573B2, “IAP antagonists” (BRISTOL-MYERS SQUIBB COMPANY, priority 2012, dated 2017)

Biological target: N-His-Tb-BIR3 (241-356, XIAP) (Homo sapiens (Human), UniProt P98170)
Test: biochemical
Assay type: binding
Conditions: not given

| SMILES | IC50 [nM] |
| --- | --- |
| CN[C@@H](C)C(=O)N[C@H](C(=O)N1Cc2cc(NC(=O)c3ccc(C(=O)N[C@H]4C[C@@H](C(=O)N[C@@H]5CCCc6ccccc65)N(C(=O)[C@@H](NC(=O)[C@@H](NC)C(C)C)C(C)(C)C)C4)cc3)ccc2C[C@H]1C(=O)N[C@@H]1CCCc2ccccc21)C(C)(C)C [Example 36, N^1-((S)-2-((S)-3,3-dimethyl-2-((S)-2-(methylamino)propanamido)butanoyl)-3-(((R)-1,2,3,4-tetrahydronaphthalen-1-yl)carbamoyl)-1,2,3,4-tetrahydroisoquinolin-7-yl)-N^4-((3S,5S)-1-((S)-3,3-dimethyl-2-((S)-3-methyl-2-(methylamino)butanamido)butanoyl)-5-(((R)-1,2,3,4-tetrahydronaphthalen-1-yl)carbamoyl)pyrrolidin-3-yl)terephthalamide] | 190 |

Same assay, conditions: fluoresceinated modified SMAC peptide, fluorescence polarization; read-out: XIAP BIR3 FPA IC50

| SMILES | IC50 [nM] |
| --- | --- |
| CN[C@@H](C)C(=O)N[C@H](C(=O)N1Cc2cc(NC(=O)c3ccc(CO[C@H]4C[C@@H](C(=O)N[C@@H]5CCCc6ccccc65)N(C(=O)[C@@H](NC(=O)[C@H](C)NC)C(C)(C)C)C4)cc3)ccc2C[C@H]1C(=O)N[C@@H]1CCCc2ccccc21)C(C)(C)C [Example 47, (S)-2-((S)-3,3-Dimethyl-2-((S)-2-(methylamino)propanamido)butanoyl)-7-(4-((((3S,5S)-1-((S)-3,3-dimethyl-2-((S)-2-(methylamino)propanamido)butanoyl)-5-(((R)-1,2,3,4-tetrahydronaphthalen-1-yl)carbamoyl)pyrrolidin-3-yl)oxy)methyl)benzamido)-N—((R)-1,2,3,4-tetrahydronaphthalen-1-yl)-1,2,3,4-tetrahydroisoquinoline-3-carboxamide] | 67 |
| CN[C@@H](C)C(=O)N[C@H](C(=O)N1Cc2cc(C(=O)Nc3ccc(C(=O)N[C@H]4C[C@@H](C(=O)N[C@@H]5CCCc6ccccc65)N(C(=O)[C@@H](NC(=O)[C@H](C)NC)C(C)(C)C)C4)cc3)ccc2C[C@H]1C(=O)N[C@@H]1CCCc2ccccc21)C(C)(C)C [Example 27, (S)-2-((S)-3,3-Dimethyl-2-((S)-2-(methylamino)propanamido)butanoyl)-N^7-(4-(((3S,5S)-1-((S)-3,3-dimethyl-2-((S)-2-(methylamino)propanamido)butanoyl)-5-(((R)-1,2,3,4-tetrahydronaphthalen-1-yl)carbamoyl)pyrrolidin-3-yl)carbamoyl)phenyl)-N^3—((R)-1,2,3,4-tetrahydronaphthalen-1-yl)-1,2,3,4-tetrahydroisoquinoline-3,7-dicarboxamide] | 73 |
| CN[C@@H](C)C(=O)N[C@H](C(=O)N1Cc2cc(N(Cc3ccc(C(=O)N[C@H]4C[C@@H](C(=O)N[C@@H]5CCCc6ccccc65)N(C(=O)[C@@H](NC(=O)[C@H](C)NC)C(C)(C)C)C4)cc3)C(C)=O)ccc2C[C@H]1C(=O)N[C@@H]1CCCc2ccccc21)C(C)(C)C [Example 32, (S)-2-((S)-3,3-Dimethyl-2-((S)-2-(methylamino)propanamido)butanoyl)-7-(N-(4-(((3S,5S)-1-((S)-3,3-dimethyl-2-((S)-2-(methylamino)propanamido)butanoyl)-5-(((R)-1,2,3,4-tetrahydronaphthalen-1-yl)carbamoyl)pyrrolidin-3-yl)carbamoyl)benzyl)acetamido)-N—((R)-1,2,3,4-tetrahydronaphthalen-1-yl)-1,2,3,4-tetrahydroisoquinoline-3-carboxamide] | 35 |
| CN[C@@H](C)C(=O)N[C@H](C(=O)N1Cc2cc(NCc3ccc(C(=O)N[C@H]4C[C@@H](C(=O)N[C@@H]5CCCc6ccccc65)N(C(=O)[C@@H](NC(=O)[C@H](C)NC)C(C)(C)C)C4)cc3Cl)ccc2C[C@H]1C(=O)N[C@@H]1CCCc2ccccc21)C(C)(C)C [Example 33, (S)-7-((2-Chloro-4-(((3S,5S)-1-((S)-3,3-dimethyl-2-((S)-2-(methylamino)propanamido)butanoyl)-5-(((R)-1,2,3,4-tetrahydronaphthalen-1-yl)carbamoyl)pyrrolidin-3-yl)carbamoyl)benzyl)amino)-2-((S)-3,3-dimethyl-2-((S)-2-(methylamino)propanamido)butanoyl)-N—((R)-1,2,3,4-tetrahydronaphthalen-1-yl)-1,2,3,4-tetrahydroisoquinoline-3-carboxamide] | 66 |
| CN[C@@H](C)C(=O)N[C@H](C(=O)N1CC[C@@H](OCc2ccc(C(=O)N[C@H]3C[C@@H](C(=O)N[C@@H]4CCCc5ccccc54)N(C(=O)[C@@H](NC(=O)[C@H](C)NC)C(C)(C)C)C3)cc2)C[C@H]1C(=O)N[C@@H]1CCCc2ccccc21)C(C)(C)C [Example 30, (2S,4R)-1-((S)-3,3-Dimethyl-2-((S)-2-(methylamino)propanamido)butanoyl)-4-((4-(((3S,5S)-1-((S)-3,3-dimethyl-2-((S)-2-(methylamino)propanamido)butanoyl)-5-(((R)-1,2,3,4-tetrahydronaphthalen-1-yl)carbamoyl)pyrrolidin-3-yl)carbamoyl)benzyl)oxy)-N—((R)-1,2,3,4-tetrahydronaphthalen-1-yl)piperidine-2-carboxamide] | 38 |
| CN[C@@H](C)C(=O)N[C@H](C(=O)N1Cc2cc(OC(=O)c3ccc(C(=O)N[C@H]4C[C@@H](C(=O)N[C@@H]5CCCc6ccccc65)N(C(=O)[C@@H](NC(=O)[C@H](C)NC)C(C)(C)C)C4)cc3)ccc2C[C@H]1C(=O)N[C@@H]1CCCc2ccccc21)C(C)(C)C [Example 46, (S)-2-((S)-3,3-Dimethyl-2-((S)-2-(methylamino)propanamido)butanoyl)-3-(((R)-1,2,3,4-tetrahydronaphthalen-1-yl)carbamoyl)-1,2,3,4-tetrahydroisoquinolin-7-yl 4-(((3S,5S)-1-((S)-3,3-dimethyl-2-((S)-2-(methylamino)propanamido)butanoyl)-5-(((R)-1,2,3,4-tetrahydronaphthalen-1-yl)carbamoyl)pyrrolidin-3-yl)carbamoyl)benzoate] | 69 |
| CN[C@@H](C)C(=O)N[C@H](C(=O)N1Cc2cc(NC(=O)CCC(=O)N[C@H]3C[C@@H](C(=O)N[C@@H]4CCCc5ccccc54)N(C(=O)[C@@H](NC(=O)[C@H](C)NC)C(C)(C)C)C3)ccc2C[C@H]1C(=O)N[C@@H]1CCCc2ccccc21)C(C)(C)C [Example 1, N^1—((S)-2-((S)-3,3-Dimethyl-2-((S)-2-(methylamino)propanamido)butanoyl)-3-(((R)-1,2,3,4-tetrahydronaphthalen-1-yl)carbamoyl)-1,2,3,4-tetrahydroisoquinolin-7-yl)-N^4-((3S,5S)-1-((S)-3,3-dimethyl-2-((S)-2-(methylamino)propanamido)butanoyl)-5-(((R)-1,2,3,4-tetrahydronaphthalen-1-yl)carbamoyl)pyrrolidin-3-yl)succinamide] | 61 |
| CN[C@@H](C)C(=O)N[C@H](C(=O)N1Cc2cc(OC(=O)c3ccc(CO[C@H]4C[C@@H](C(=O)N[C@@H]5CCCc6ccccc65)N(C(=O)[C@@H](NC(=O)[C@H](C)NC)C(C)(C)C)C4)cc3)ccc2C[C@H]1C(=O)N[C@@H]1CCCc2ccccc21)C(C)(C)C [Example 48, (S)-2-((S)-3,3-Dimethyl-2-((S)-2-(methylamino)propanamido)butanoyl)-3-(((R)-1,2,3,4-tetrahydronaphthalen-1-yl)carbamoyl)-1,2,3,4-tetrahydroisoquinolin-7-yl 4-((((3S,5S)-1-((S)-3,3-dimethyl-2-((S)-2-(methylamino)propanamido)butanoyl)-5-(((R)-1,2,3,4-tetrahydronaphthalen-1-yl)carbamoyl)pyrrolidin-3-yl)oxy)methyl)benzoate] | 92 |
| CN[C@@H](C)C(=O)N[C@H](C(=O)N1Cc2cc(NC(=O)c3cccc(CO[C@H]4C[C@@H](C(=O)N[C@@H]5CCCc6ccccc65)N(C(=O)[C@@H](NC(=O)[C@H](C)NC)C(C)(C)C)C4)c3)ccc2C[C@H]1C(=O)N[C@@H]1CCCc2ccccc21)C(C)(C)C [Example 52, (S)-2-((S)-3,3-Dimethyl-2-((S)-2-(methylamino)propanamido)butanoyl)-7-(3-((((3S,5S)-1-((S)-3,3-dimethyl-2-((S)-2-(methylamino)propanamido)butanoyl)-5-(((R)-1,2,3,4-tetrahydronaphthalen-1-yl)carbamoyl)pyrrolidin-3-yl)oxy)methyl)benzamido)-N-((R)-1,2,3,4-tetrahydronaphthalen-1-yl)-1,2,3,4-tetrahydroisoquinoline-3-carboxamide] | 42 |
| CN[C@@H](C)C(=O)N[C@H](C(=O)N1Cc2cc(NC(=O)c3ccc(C(=O)Nc4ccc5c(c4)CN(C(=O)[C@@H](NC(=O)[C@H](C)NC)C(C)(C)C)[C@H](C(=O)N[C@H](C)c4ccccc4F)C5)cc3)ccc2C[C@H]1C(=O)N[C@H](C)c1ccccc1F)C(C)(C)C [Example 12, N^1,N^4-bis((S)-2-((S)-3,3-Dimethyl-2-((S)-2-(methylamino)propanamido)butanoyl)-3-(((R)-1-(2-fluorophenyl)ethyl)carbamoyl)-1,2,3,4-tetrahydroisoquinolin-7-yl)terephthalamide] | 130 |
| CC[C@H](NC)C(=O)N[C@H](C(=O)N1Cc2cc(OCc3ccc(C(=O)N[C@H]4C[C@@H](C(=O)N[C@@H]5CCCc6ccccc65)N(C(=O)[C@@H](NC(=O)[C@H](C)NC)C(C)(C)C)C4)cc3)ccc2C[C@H]1C(=O)N[C@@H]1CCCc2ccccc21)C(C)(C)C [Example 43] | 130 |

Same assay, conditions: read-out: XIAP BIR3 FPA IC50

| SMILES | IC50 [nM] |
| --- | --- |
| CN[C@@H](C)C(=O)N[C@H](C(=O)N1Cc2cc(NC(=O)C(F)(F)C(F)(F)C(=O)N[C@H]3C[C@@H](C(=O)N[C@@H]4CCCc5ccccc54)N(C(=O)[C@@H](NC(=O)[C@H](C)NC)C(C)(C)C)C3)ccc2C[C@H]1C(=O)N[C@@H]1CCCc2ccccc21)C(C)(C)C [Example 17, N^1—((S)-2-((S)-3,3-Dimethyl-2-((S)-2-(methylamino)propanamido)butanoyl)-3-(((R)-1,2,3,4-tetrahydronaphthalen-1-yl)carbamoyl)-1,2,3,4-tetrahydroisoquinolin-7-yl)-N^4-((3S,5S)-1-((S)-3,3-dimethyl-2-((S)-2-(methylamino)propanamido)butanoyl)-5-(((R)-1,2,3,4-tetrahydronaphthalen-1-yl)carbamoyl)pyrrolidin-3-yl)-2,2,3,3-tetrafluorosuccinamide] | 56 |
